Results on 29 compounds are retold here after patent US8383637B2, “2-amino-quinazoline derivatives useful as inhibitors of β-secretase (BACE)” (Jansssen Pharmaceutica N.V., priority 2004, dated 2013).

What all share (type): biochemical
The target in experiment [1] is T1, β-secretase(BACE) (Homo sapiens, UniProt P56817).
T1 construct: purchased Panvera
In words: BACE Assay-1 (MCA-substrate, IC50). To be noted: procedure of Example 158; read-out: IC50 μM (158). How it is done: The following standards are reagents were used in this assay: Sodium Citrate trisodium salt dihydrate (Sigma), Citric Acid monohydrate (Merck), PEG8000 (Sigma), MCA-substrate (Bachem), β-secretase (BACE) (Panvera), 96-well plate zwart (Costar (Elscolab)), StatVal (Bachem).
The following standard assay buffer solution was prepared and used in this assay: 0.05 M, pH 5.0 mixture of sodium citrate trisodium salt dihydrate (9.56 g), citric acid monohydrate (3.68 g) and PEG8000 (0.50 g).
The MCA-substrate stock solution was prepared by mixing 10 mg MCA-substrate with 5 mL DMSO for a final solution concentration of 2.0 mg/mL. The substrate work solution was prepared by mixing 0.1 mL substrate in 1.90 mL assay buffer for a final concentration of 0.05 mM. The β-secretase (BACE) work solution was prepared by mixing 8 μL BACE in 2 mL assay buffer for a final concentration of 10 μg/mL.
The screen procedure for this assay was as follows. 60 μL of assay buffer was pippeted into each well of a 96-well plate. To each well was then pipetted 1 μL of test compound at the selected concentration. To each well was then added 20 μL of the β-secretase work solution and 20 μL of the MCA-substrate stock solution.
The procedure for the blank was as follows. 80 μL of assay buffer was pipetted into each well to be used as a blank control. To each well was then added 1 μL of DMSO and 20 μL of MCA-substrate solution in each well.
The procedure for the positive control was as follows. 60 μL of assay buffer was pipetted into each well to be used as a positive control. To each well was then added 1 μL of DMSO, 20 μL of BACE work solution and 20 μL of MCA-substrate stock solution.
For test compounds, measured at multiple concentrations, the measured T0 and T60 values were used to calculate an IC50 value using Graphpad Software (or PIR).

The target of experiment [2] is T1, β-secretase(BACE). In words: BACE FS1% Inhibition Assay. Conditions: FS1 substrate, read-out: % Inhibition (FS); for inhibition at 0.3 µM: 0.3 μM test compound; for inhibition at 1 µM: 1 μM test compound; for inhibition at 3 µM: 3 μM test compound. Put shortly: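 Human BACE (4 μg/mL working solution) preincubated 20 min at room temperature with compound, then FS1 substrate (300 μg/mL working solution) added and incubated 1 h at room temperature. Percent inhibition calculated at each compound concentration against blank and vehicle controls.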

For experiment [3], the target named is T1, β-secretase(BACE). In words: BACE Assay-2 (FS1 substrate, IC50 and Ki). To be noted: procedure of Example 159, FS1 substrate; read-out: Ki μM (159).

T1 sequence (P56817 46-501): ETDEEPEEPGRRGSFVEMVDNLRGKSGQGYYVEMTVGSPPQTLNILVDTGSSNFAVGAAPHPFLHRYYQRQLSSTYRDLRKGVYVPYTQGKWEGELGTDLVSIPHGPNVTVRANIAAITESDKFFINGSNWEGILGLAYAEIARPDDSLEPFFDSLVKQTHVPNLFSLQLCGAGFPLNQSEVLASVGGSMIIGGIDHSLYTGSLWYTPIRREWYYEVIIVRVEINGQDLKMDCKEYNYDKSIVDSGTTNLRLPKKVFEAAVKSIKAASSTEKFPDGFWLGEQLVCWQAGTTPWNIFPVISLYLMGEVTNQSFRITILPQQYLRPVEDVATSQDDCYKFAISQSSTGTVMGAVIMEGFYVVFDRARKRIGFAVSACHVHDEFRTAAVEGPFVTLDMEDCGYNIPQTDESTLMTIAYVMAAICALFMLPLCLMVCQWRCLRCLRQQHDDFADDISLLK

A word on the IC50: it is the concentration that inhibits the measured activity by half. In the case of `CN(C(=O)CCN1Cc2cc(C(=O)c3ccc(F)cc3)ccc2N=C1N)C1CCCCC1` [Compound 2], the IC50 in experiment [1] amounted to 26 µM.
Same read-out and setting: under `CCN(C(=O)CCN1Cc2cc(C(=O)c3ccccc3)ccc2N=C1N)C1CCCCC1` [Compound 3] stands 4 µM; under `CN(C(=O)CCN1Cc2cc(C(=O)c3ccccc3)ccc2N=C1N)C1CCCCCC1` [Compound 4], 2.5 µM; under `CN(C(=O)CCN1Cc2cc(C(=O)c3ccc(F)cc3)ccc2N=C1N)C1CCCCCC1` [Compound 5], 5.1 µM.
Same read-out and setting: with `CCN(C(=O)CCN1Cc2cc(C(=O)c3ccc(F)cc3)ccc2N=C1N)C1CCCCC1` [Compound 6] the figure was 9.1 µM; with `CN(C(=O)CCN1Cc2cc(C(=O)c3ccccc3)ccc2N=C1N)c1ccccc1` [Compound 13], 16 µM; with `COCCN1Cc2cc(C(=O)c3ccccc3)ccc2N=C1N` [Compound 18], 91 µM.
On the same count and under the same terms, with `CC(C)N(C)C(=O)CCN1Cc2cc(C(=O)c3ccccc3)ccc2N=C1N` [Compound 22] the figure was 12 µM.
`CN(C(=O)CCN1Cc2cc(C(=O)c3ccccc3)ccc2N=C1N)C1CCCC1` [Compound 24]: the IC50 in experiment [1] came to 1.8 µM.
Still for that read-out and setting: with `CN(C(=O)CCN1Cc2cc(C(=O)c3ccc(F)cc3)ccc2N=C1N)C1CCCC1` [Compound 25] the figure was 5.5 µM.
Same read-out and setting: with `NC1=Nc2ccc(C(=O)c3ccccc3)cc2CN1CCCCC(=O)NC1CCCCC1` [Compound 31] the figure was 2.3 µM.
What is called inhibition is the relative decrease from the control value, in per cent. The term Ki denotes the equilibrium dissociation constant of an inhibitor or competing ligand from its target. On to `NC1=Nc2ccc(Oc3ccccc3)cc2CN1[C@@H](CCC(=O)N(CCO)[C@H]1CC[C@@H](C(=O)O)CC1)C1CCOCC1` [Compound 750, (S)-Enantiomer of 4-cis-[[4-(2-Amino-6-phenoxy-4H-quinazolin-3-yl)-4-(tetrahydro-pyran-4-yl)-butyryl]-(2-hydroxy-ethyl)-amino]-cyclohexanecarboxylic acid], for which, in experiment [2], the inhibition at 0.3 µM came out at 115%, the inhibition at 1 µM came out at 114% and the inhibition at 3 µM was 116%. Also, the Ki in experiment [3] amounted to 0.005 µM.
For `NC1=Nc2ccc(Oc3ccccc3)cc2CN1[C@@H](CCC(=O)N(CCOCc1ccccc1)[C@H]1CC[C@@H](C(=O)O)CC1)C1CCOCC1` [Compound 751, (S)-enantiomer of 4-[[4-(2-Amino-6-phenoxy-4H-quinazolin-3-yl)-4-(tetrahydro-pyran-4-yl)-butyryl]-(2-benzyloxy-ethyl)-amino]-cyclohexanecarboxylic acid], in that order: 112%, 112%, 116% and 0.025 µM.
For `CN(C(=O)CC[C@@H](C1CCCCC1)N1Cc2c(cccc2Oc2ccccc2)N=C1N)C1CCCCC1` [Compound 753], in that order: 13%, 47%, 93% and 0.656 µM.
For `COC(=O)[C@H]1CC[C@@H](N(C)C(=O)CC[C@@H](C2CCCCC2)N2Cc3cc(Oc4ccccc4)ccc3N=C2N)CC1` [Compound 761], in experiment [2], the inhibition at 0.3 µM was 51%, the inhibition at 1 µM was found to be 91% and the inhibition at 3 µM came out at 112%. Also, the inhibition constant Ki in experiment [3] was found to be 0.175 µM.
For `COC(=O)[C@H]1CC[C@@H](N(CCO)C(=O)CC[C@@H](C2CCCCC2)N2Cc3cc(Oc4ccccc4)ccc3N=C2N)CC1` [Compound 762], in that order: 74%, 102%, 113% and 0.111 µM.
For `CN(C(=O)CC[C@@H](C1CCCCC1)N1Cc2cc(Oc3ccccc3)ccc2N=C1N)[C@H]1CC[C@@H](C(N)=O)CC1` [Compound 764, 4-{[4-(2-Amino-6-phenoxy-4H-quinazolin-3-yl)-4S-cyclohexyl-butyryl]-methyl-amino}-S,R-cyclohexanecarboxylic acid amide], in that order: 87%, 110%, 116% and 0.061 µM.
`NC1=Nc2ccc(Oc3ccccc3)cc2CN1[C@@H](CCC(=O)N(CC(=O)O)C1CCCCC1)C1CCCCC1` [Compound 768, {[4-(2-Amino-6-phenoxy-4H-quinazolin-3-yl)-4S-cyclohexyl-butyryl]-cyclohexyl-amino}-acetic acid]: in experiment [2], the inhibition at 0.3 µM is 122%, the inhibition at 1 µM was found to be 120% and the inhibition at 3 µM came out at 126%. In addition, the inhibitory constant (Ki) in experiment [3] came to 0.013 µM.
For `NC1=Nc2ccc(Oc3ccccc3)cc2CN1[C@@H](CCC(=O)N[C@@H](CO)C(=O)O)C1CCOCC1` [Compound 771], in that order: 46%, 79%, 105% and 0.173 µM.
For `NC1=Nc2ccc(Oc3ccccc3)cc2CN1[C@@H](CCC(=O)N[C@H](CO)C(=O)O)C1CCOCC1` [Compound 773, 2-[4-(2-Amino-6-phenoxy-4H-quinazolin-3-yl)-4S-(tetrahydro-pyran-4-yl)-butyrylamino]-3R-hydroxy-propionic acid] the same measures were 102%, 111%, 119% and 0.028 µM.
For `CC(C)(C)OC[C@@H](NC(=O)CC[C@@H](C1CCOCC1)N1Cc2cc(Oc3ccccc3)ccc2N=C1N)C(=O)O` [Compound 774, 2-[4-(2-Amino-6-phenoxy-4H-quinazolin-3-yl)-4S-(tetrahydro-pyran-4-yl)-butyrylamino]-3R-tert-butoxy-propionic acid] the same measures were 122%, 120%, 124% and 0.003 µM.
`CN(C(=O)CCC(C1CCCCC1)N1Cc2cc(Oc3ccccc3)ccc2N=C1N)C1CCCC(C(=O)O)C1` (centres unmarked) [Compound 776]: in experiment [2], the inhibition at 0.3 µM amounted to 41%, the inhibition at 1 µM worked out at 95% and the inhibition at 3 µM worked out at 117%. Further, the Ki in experiment [3] was determined as 0.107 µM.
For `COC(=O)[C@@H](COCc1ccccc1)N(C)C(=O)CC[C@@H](C1CCCCC1)N1Cc2cc(Oc3ccccc3)ccc2N=C1N` [Compound 779] the same measures were 102%, 107%, 120% and 0.045 µM.
Take `NC1=Nc2ccc(Oc3ccccc3)cc2CN1[C@@H](CCC(=O)N[C@@H](COCc1ccccc1)C(=O)O)C1CCOCC1` [Compound 782]: in experiment [2], the inhibition at 0.3 µM was 104%, the inhibition at 1 µM worked out at 107% and the inhibition at 3 µM came to 113%. For the same compound, the Ki in experiment [3] amounted to 0.015 µM.
As to `COC(=O)[C@@H](COCc1ccccc1)N(C)C(=O)CC[C@@H](C1CCOCC1)N1Cc2cc(Oc3ccccc3)ccc2N=C1N` [Compound 783], in experiment [2], the inhibition at 0.3 µM was determined as 109%, the inhibition at 1 µM was 110% and the inhibition at 3 µM worked out at 121%. In addition, the Ki in experiment [3] is 0.301 µM.
With `CN(C(=O)CC[C@@H](C1CCOCC1)N1Cc2cc(Oc3ccccc3)ccc2N=C1N)[C@H](COCc1ccccc1)C(=O)O` [Compound 784, 2-{[4-(2-Amino-6-phenoxy-4H-quinazolin-3-yl)-4S-(tetrahydro-pyran-4-yl)-butyryl]-methyl-amino}-3R-benzyloxy-propionic acid], in experiment [2], the inhibition at 0.3 µM came to 107%, the inhibition at 1 µM amounted to 108% and the inhibition at 3 µM is 120%. The Ki in experiment [3] is 0.298 µM.
For `COC(=O)[C@H](COCc1ccccc1)NC(=O)CC[C@@H](C1CCOCC1)N1Cc2cc(Oc3ccccc3)ccc2N=C1N` [Compound 785] the same measures were 71%, 91%, 107% and 0.198 µM.
For `COC(=O)[C@H](COCc1ccccc1)N(C)C(=O)CC[C@@H](C1CCOCC1)N1Cc2cc(Oc3ccccc3)ccc2N=C1N` [Compound 786] the same measures were 97%, 105%, 114% and 0.101 µM.
For `NC1=Nc2ccc(Oc3ccccc3)cc2CN1[C@@H](CCC(=O)N(Cc1nnn[nH]1)C1CCCCC1)C1CCCCC1` [Compound 787, 4-(2-Amino-6-phenoxy-4H-quinazolin-3-yl)-4S,N-dicyclohexyl-N-(1H-tetrazol-5-ylmethyl)-butyramide], in experiment [2], the inhibition at 0.3 µM is 108%, the inhibition at 1 µM stood at 109% and the inhibition at 3 µM stood at 121%. For the same compound, the Ki in experiment [3] turned out to be 0.038 µM.
